PubChem BioAssay (NCI)
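Five concentrations, 48 hours, 96-well plates. GI50: concentration for 50% inhibition of growth. Definition used: TGI = concentration required for complete inhibition of growth.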

Key:
Assay in all cases: inhibition of tumour cell growth, NCI panel, 48 h
CAKI-1 renal = test system: CAKI-1 renal
OVCAR-5 ovarian = test system: OVCAR-5 ovarian
SNB-19 CNS = test system: SNB-19 CNS
SF-539 CNS = test system: SF-539 CNS
NCI-H522 lung = test system: NCI-H522 lung
MALME-3M melanoma = test system: MALME-3M melanoma
A498 renal = test system: A498 renal
HT29 colon = test system: HT29 colon
IGROV1 ovarian = test system: IGROV1 ovarian
HL-60(TB) leukemia = test system: HL-60(TB) leukemia

Compound	TGI (CAKI-1 renal) [µM]	TGI (OVCAR-5 ovarian) [µM]	TGI (SNB-19 CNS) [µM]	TGI (SF-539 CNS) [µM]	TGI (NCI-H522 lung) [µM]	TGI (MALME-3M melanoma) [µM]	TGI (A498 renal) [µM]	TGI (HT29 colon) [µM]	TGI (IGROV1 ovarian) [µM]	TGI (HL-60(TB) leukemia) [µM]	GI50 (CAKI-1 renal) [µM]	GI50 (OVCAR-5 ovarian) [µM]	GI50 (SNB-19 CNS) [µM]	GI50 (SF-539 CNS) [µM]	GI50 (NCI-H522 lung) [µM]	GI50 (MALME-3M melanoma) [µM]	GI50 (A498 renal) [µM]	GI50 (HT29 colon) [µM]	GI50 (IGROV1 ovarian) [µM]	GI50 (HL-60(TB) leukemia) [µM]
COC(=O)c1ccc2c(c1)C(NC(C)=O)CCc1cc(OC)c(OC)c(OC)c1-2 (stereo not given)	77.4	> 95.9	> 86.9	0.056	0.074	> 100	4.27	1.28	> 41.1	0.0285	–	–	–	–	–	–	–	–	–	–
C[n+]1cc2c3c(ccc2c2ccc4cc5c(cc4c21)OCO5)OCO3	2.13	2.42	2.72	3.02	1.41	1.83	3.12	1.87	2.48	2.7	0.735	1.16	1.29	1.42	0.3	0.564	1.54	0.507	1.18	0.445
Cc1ccc(C(=O)Nc2ccc(CN3CCN(C)CC3)c(C(F)(F)F)c2)cc1C#Cc1cnc(N)c2ccc(F)cc12	1.29	2.7	1.81	1.24	0.723	0.597	0.961	0.865	0.501	1.35	0.216	0.694	0.641	0.527	0.214	0.141	0.327	0.133	0.0575	0.198
CC(C)N(C(C)C)[PH+]1O[PH+](N(C(C)C)C(C)C)O[PH+](N(C(C)C)C(C)C)O[PH+](N(C(C)C)C(C)C)O[PH+](N(C(C)C)C(C)C)O1.[C-]#[O+].[C-]#[O+].[C-]#[O+].[C-]#[O+].[C-]#[O+].[C-]#[O+].[C-]#[O+].[Cr].[Cr] (stereo not given)	> 100	> 100	> 100	> 100	> 100	> 100	> 100	> 100	> 100	> 100	> 100	> 100	> 100	> 100	> 100	> 100	> 100	> 100	> 100	> 100
O=C(C(=O)c1ccc(Cc2ccc(C(=O)C(=O)c3ccccc3)cc2)cc1)c1ccccc1	> 100	> 100	> 100	> 100	> 100	> 100	> 100	> 100	> 100	> 100	–	–	–	–	–	–	–	–	–	–
C#C[C@]1(O)CC[C@H]2[C@@H]3CC=C4c5nc(Nc6ccccn6)sc5CC[C@]4(C)[C@H]3CC[C@@]21C	3.1	4.44	5.59	0.744	4.12	2.32	1.19	3.94	10.9	1.96	1.26	1.65	1.37	0.185	1.86	0.677	0.26	1.6	2.27	0.398
CSc1nc2c(c(O)c(C)c(=O)n2C2OC(COC(C)=O)C(OC(C)=O)C(OC(C)=O)C2OC(C)=O)c(=O)n1C (stereo not given)	> 100	> 100	> 100	> 100	> 100	> 100	> 100	> 100	> 100	> 100	–	–	–	–	–	–	–	–	–	–
COC1/C=C/OC2(C)Oc3c(C)c(O)c4c(c3C2=O)C(=O)C=C(NC(=O)/C(C)=C\C=C\C(C)C(OC=O)C(C)C(O)C(C)C(OC(C)=O)C1C)C4=O (stereo not given)	28.3	36.4	27.4	32.9	6.33	28.7	41.3	23.4	34.7	5.88	–	–	–	–	–	–	–	–	–	–
